Measurements published in patent publication US7425534B2, “Compositions and methods for modulating muscle cell and tissue contractility” (The Trustees of the University of Pennsylvania, priority 2000, dated 2008).
Blank lines part the entries; values can stand above or below the molecule they belong to.

Tested on: rat aortic rings
Assay: Phenylepherine (PE)-induced contraction of isolated rat aortic rings (isometric tension)
Format: cell-based
Text: Male Sprague Dawley rats (250-275 g) were sacrificed by exsanguination and thoracic aortae were removed with care to avoid damage to the endothelium, dissected free of fat and connective tissue, and cut into transverse rings, each 5 mm in length (Kyong et al., 1992, Br. J. Pharmacol. 107:983-990; Yohtaro et al., 1987, Eur. J. Pharmacol. 131:75-78; Chang et al., 1992, Br. J. Pharmacol. 107:983-990; Oyama et al., 1986, Eur. J. Pharmacol. 132:75-78). The tissues were maintained in an oxygenated (95% O2; 5% CO2) solution of Krebs-Henseliet (KH) buffer (144 millimolar NaCl, 5.9 millimolar KCl, 1.6 millimolar CaCl2, 1.2 millimolar MgSO4, 1.2 millimolar KH2PO4, 25 millimolar NaHCO3, and 11.1 millimolar D-glucose). The aortic rings were mounted to record isometric tension in a 10 milliliter bath containing KH solution under continuous aeration. The aortic rings were equilibrated for 1.5 hours at 37° C. and maintained under a resting tension of 2 g throughout the experiment. Each aortic ring was then contracted by adding phenylepherine (PE) in stepwise increments raising the concentration of PE from 10^−10 molar to 10^−5 molar. […] In every experiment, aortic rings exposed to KH buffer alone were analyzed in parallel as controls. Isometric tension was evaluated using a force displacement transducer and recorded online using a computerized system (ExperimentiaAE, Budapest, Hungary).

Molecule: ATF: amino terminal fragment of urokinase, amino acids 1-135, growth factor domain plus kringle, SEQ ID NO:4
- Contractility enhancing activity in the presence of suPAR (10 nM ATF + 10 nM suPAR (FIG. 3)): abolished
- Potency at enhancing vascular smooth muscle tissue contractility relative to tcuPA (compare FIGS. 2 and 3): 6 fold

Molecule: GFD: growth factor domain of uPA which binds to uPAR, SEQ ID NO:2 (SNELHQVPSNCDCLNGGTCVSNKYFSNIHWCNCPKKFGGQHCEIDKS; listed as Homo sapiens)
- Effect upon PE-induced aortic contraction / vasoconstriction (10 nM uPA species (FIGS. 5A, 5B; GFD 10 nanomolar)): did not enhance contractility

- EC50 (PE alone, K-H buffer, no uPA species): 29 nM
Molecule: CNC[C@H](O)c1cccc(O)c1 [PE, phenylepherine, reference compound]

B1: uPA kringle: kringle domain of uPA, amino acids 47-135, SEQ ID NO:1 (protein, listed as Homo sapiens)
chain: KTCYEGNGHFYRGKASTDTMGRPCLPWNSATVLQQTYHAHRSDALQLGLGKHNYCRNPDNRRRPWCYVQVGLKPLVQECMVHDCADGK
- Direct induction of vasoconstriction (uPA kringle without PE effect (FIG. 4)): did not induce vasoconstriction directly
